Source: a melting point compilation (Tetko et al.; mined from patent text by program, amines drawn as free bases though some values may be those of a salt)

SMILES | melting point
CC1(C)OCC(C(O)CN)O1 (stereo not given) | 94 to 96 °C
Cc1ccc(N2CCCN(c3ccnc4sc(C(N)=O)c(N)c34)CC2)cc1[N+](=O)[O-] | 114 to 117 °C
CCCCCCOC(=O)C1=C(C)NN=C(CC)C1c1cccc([N+](=O)[O-])c1 (stereo not given) | 92 °C
CCOC(=O)c1cn2c(C)csc2n1 | 117 to 119 °C
Cc1ccc2c(c1)N=C(N1CCC(C)CC1)c1cccc3c1N2CC3 | 194 to 196 °C
COc1cc(C(C)C)c(Oc2cnc(N)nc2N)cc1N1CCN(S(C)(=O)=O)CC1 | 115 to 117 °C
CC(C)(C)c1cc(C(=O)NCCOC(=O)c2cc(C(C)(C)C)c(O)c(C(C)(C)C)c2)cc(C(C)(C)C)c1O | 185 to 187 °C
CC1(C)CCC(C)(C)c2cc(-c3ccc4cc(O)ccc4c3)ccc21 | 104 °C
Oc1nc2ccc3c(c2nc1O)CCCC3 | > 300 °C
COc1cccc2c1nc(C1CC1)n2Cc1c(F)cccc1F | 136 to 139 °C
Clc1ccc2nccc(Cl)c2c1 | 101 to 104 °C
CCOC(=O)c1cnc(Cl)c(N)c1NC | 50 to 52 °C
COc1cccc2c1OCC(C(=O)O)O2 (stereo not given) | 85 to 87 °C
COc1cc(OC)cc(OC(=O)N2CCCC2=O)c1 | 80 to 81 °C
CC(C)(C)OC[C@@H]1NCCN(CC(=O)O)C1=O | 178 to 180 °C
ClCc1nnc2n1-c1sc(Cl)cc1C(c1ccccc1Cl)=NC2 | 101 to 103 °C
CC(C)CCOc1c(-c2ccc(S(N)(=O)=O)cc2)cnn(CC(F)(F)F)c1=O | 123 to 124 °C
O=C1OC(P(=O)(O)C2OC(=O)c3ccccc32)c2ccccc21 (stereo not given) | 280 to 285 °C
Cc1cc(C(=O)N(C)C)ncc1C(c1cc(F)ccc1F)S(=O)(=O)c1ccc(Cl)cc1 (stereo not given) | 207 to 208 °C
CCOC(=O)c1c(N)c2cc(Cl)ccc2n1C(=O)C(F)(F)F | 249 to 251 °C
CC(C)(CCCCCCCCCCC(C)(C)C(Cl)C(=O)O)C(Cl)C(=O)O (stereo not given) | 103 to 112 °C
CP(C)(=O)COc1cc(Cl)c(C=O)c(Cl)c1 | 136 to 139 °C

SMILES | melting point
CCOC(=O)N1CCC(Nc2nc3cccnc3n2Cc2ccc(CC)o2)CC1 | 111 °C
Cc1c(NC(=O)CC(C)(C)C)cc2c(c1C)OC(C)(C)C2c1ccc(C=O)cc1 (stereo not given) | 169 to 170 °C
CCOC(=O)CNc1c(C)cc(C(O)(C(F)(F)Cl)C(F)(F)Cl)cc1C | 102 to 104 °C
O=C(CN1C(=O)[C@H](Cl)[C@H]1[S@@](=O)Cc1ccccc1)NCCCCCCc1ccc(F)cc1 | 87 to 89 °C
CC(O)C1C(=O)NC1CC(=O)OCc1ccccc1 (mixture of isomers) | 67.5 to 68.5 °C
CCCCCS(=O)(=O)NC(=O)/C=C/c1ccc(OCCO[Si](C(C)C)(C(C)C)C(C)C)cc1Oc1ncc(C(F)(F)F)cc1Cl | 106 to 108 °C
CC(C)(C)OC(=O)NC1CSCCNC1=O (stereo not given) | 200 to 201 °C
CC1=C(c2ccncc2)C(C)CC(=O)N1 (stereo not given) | 184 to 186 °C
O=C(Nc1nnn[nH]1)c1ccccc1[N+](=O)[O-] | 272 to 273 °C
CCCc1nc2c(N)nc3ccccc3c2n1CCCCCC(N)=O | 210 to 211 °C
O=c1[nH]c(NCCc2c[nH]cn2)nc2c1ncn2C1CC(O)C(CO)O1 (stereo not given) | 220 to 222 °C
CCOP(=O)(Cc1ccc(NC(=O)CCc2sc(N)nc2-c2ccc(Cl)cc2)cc1)OCC | 177 to 178 °C
CC#Cc1ccc(NC(=O)C#Cc2ccc(CCN3CCCC3)cc2)cc1 | 198 to 199 °C
CNC(=O)C1CN=CNC1 (stereo not given) | 150 to 151 °C
Cc1cc(NC(=O)C(C)(O)COc2cc(Cl)cc(Cl)c2)ccc1[N+](=O)[O-] (stereo not given) | 141 to 143 °C
Cc1cc(C)c(C(C)(C)O)c(C)c1 | 106 to 107 °C
COC(=O)c1nc2cc(Cl)cc(C)c2c(O)c1C(=O)OC | 117 to 119 °C
CC(C)(C)[Si](C)(C)OC1CCCc2cnc3cc(O)ccc3c21 (stereo not given) | 248 to 250 °C
COC(=O)N=C(N(C)C)N(C)C(=O)NC1CCCCC1 | 60 °C
O=C(CCCCCCCCC(=O)OC1CCN(O)CC1)OC1CCN(O)CC1 | 133 to 135 °C
COc1cccc2c(=O)c3c(O)cc(OCC(O)CO)cc3oc12 (stereo not given) | 189 °C
COc1ccc(C(Cl)C(C)(C)[N+](=O)[O-])cc1OC (stereo not given) | 109 to 110 °C

SMILES | melting point
CC1(C2CCCC2)Cc2cc(OCCCC#N)c(Cl)c(Cl)c2C1=O (stereo not given) | 112 °C
N#CC(N)c1c(Cl)cccc1Cl (stereo not given) | > 300 °C
CC(=O)N1Cc2cnc(C)n2-c2ccc(Cl)cc2C1c1ccccc1F (stereo not given) | 185 to 186 °C
CC(C)(C)OC(=O)N[C@H](Cc1ccc(Cl)c(Cl)c1)C(=O)N1CCC[C@H]1C(=O)NC1CCc2nc(N)sc2C1 (stereo not given in full) | 116 to 119 °C
C=CS(=O)(=O)NCc1ccc(OC)cc1 | 68 to 69 °C
Fc1ccc(C#Cc2ccc(F)cc2)cc1 | 95 to 96 °C
N#CC1=C2N(Cc3ccc(Cl)nc3)CCN2C2CCC1O2 (stereo not given) | 125 to 127 °C
CC(CS(=O)(=O)c1ccccc1)C1CC=C2C3=C(CCC21C)C1(C)CCC(OC(=O)c2ccccc2)C(C)(C)C1CC3 (stereo not given) | 175 to 188 °C
CCCCCC(C=CC1C(O[Si](C)(C)C(C)(C)C)CC2Cc3c(cccc3OC(=O)c3ccccc3)CC21)O[Si](C)(C)C(C)(C)C (stereo not given) | 140 to 141 °C
N[C@@H](Cc1cc(F)cc(F)c1)[C@H](O)CO | 93 °C
CCOC(=O)C(=O)c1cn(CCN(C)C)c2ccccc12 | 71 to 72 °C
Cc1ccc(C(=O)P2(=O)Oc3ccccc3-c3ccccc32)c(C)c1 (stereo not given) | 166 °C
C=CC(O)C(NC=O)C(=O)OCC (stereo not given) | 50 to 51 °C
CC1=C(c2ccc(Cl)cc2)n2ncc3c(=O)[nH]c(=S)n(c32)C1 | 283 to 285 °C
COc1cccc([C@H]2O[C@H](CC(=O)Nc3cccc(CCCCC(=O)O)c3)C(=O)N(CC(C)(C)CO)c3ccc(Cl)cc32)c1OC | 117 to 119 °C
CCN1CCC(O)(c2cccc(F)c2F)C1 (stereo not given) | 119 to 120 °C
CCCCCCCCCCCCCCCCCCN(C(=O)CCCCCCCCCCC)C1O[C@H](CO)[C@@H](O)[C@H](O)[C@H]1NC(=O)CCCCCCCCCCC (stereo not given in full) | 86 °C
OCC1(CO)Nc2cccc3cccc(c23)N1 | 158 °C
COc1c(N2CC[C@@H](C(C)(C)N)C2)c(F)cc2c(=O)c(C(=O)O)cn(C3CC3)c12 | 225 to 227 °C
C/C=C/CNc1cccc(-c2ccnc3c(C(=O)c4cccs4)cnn23)c1 | 110 to 113 °C
COC(=O)CCSCc1csc(NC(N)=NCC(F)(F)F)n1 | 96 to 98 °C

Results, then the molecule that gave them:

melting point | SMILES
84 °C | Nc1ccc(CNC(=O)C2Cc3ccccc3N2S(=O)(=O)c2ccc(-c3cccc(C(F)(F)F)c3)cc2)cc1 (stereo not given)
128 to 131 °C | COc1cc(OC)nc(Nc2ncccc2C(=O)OCc2ccccc2)n1
129 to 130 °C | Cc1oc(-c2ccccc2)nc1COc1ccc(I)cn1
122 to 123 °C | CSc1ccc(CSc2nnc(-c3ccc4ncsc4c3)o2)cc1C(F)(F)F
198 to 200 °C | CCn1c(=O)c(C)cc2cnc(Nc3ccc(N4CCN(C)CC4)cc3)nc21
214 to 216 °C | CCOc1ccc(-c2nc(O)c(-c3ccccc3)s2)cc1
231 to 232 °C | O=C(NCc1ccccn1)Nc1cc(-n2c(=O)n(-c3ccccc3)c3ccccc32)ccn1
110 to 111 °C | O=C1c2ccccc2C(=O)N1CCCCOc1ccc(-c2ccccc2)cc1
207 to 209 °C | Cc1oc(-c2ccccc2)nc1CCOc1ccc(C[C@H](NC(=O)C=Cc2ccccc2)C(=O)O)cc1
144 °C | Cc1cc(C)cc(NCc2ccc3nc(NC4CCN(CCO)CC4)n(Cc4nc(C)ccc4O)c3c2)c1
137 to 139 °C | O=C1C(=Cc2cccc(Cl)c2)SC(c2cccc(Cl)c2)N1CCCN1CCCCC1 (stereo not given)
87 to 89 °C | CSc1nccc(-c2ccccc2)n1
127 to 129 °C | CCCn1ncnc1COc1nc2c(cc1C(C)(C)C)nnn2-c1ccccc1F
> 250 °C | CNCC1Cc2cc(-c3ccccc3)cc(-c3ccc(OC)cc3)c2O1 (stereo not given)
135 to 138 °C | CC=CCn1c(C)c(C)c2cnnc(NCc3ccc(F)cc3)c21
150 to 151 °C | CC1(C)OC[C@H](Cc2ccccc2)N1C(=O)Cn1cc(-c2ccc(-c3ccccc3)cc2)cn1
144 to 156 °C | CC(=Nc1ccc(O)cc1C)c1ccccc1O
211 to 212 °C | Cc1nccn1-c1nc(-c2ccc(Cl)cc2)c(CCCC(=O)O)o1

melting point | SMILES
66 to 68 °C | CCCOc1ccc(-c2cccc(/C=C/C(=O)OCC)c2)cc1OC
113 to 116 °C | CC(C)(C)C(=O)Nc1ccc(Cl)cc1C(=O)C[C@H]1C(=O)OCN1C(=O)OCc1ccccc1
> 300 °C | Nc1ncc2cc(-c3c(F)cccc3F)c(N)nc2n1
228 to 229 °C | COc1cc(OC)c(-c2cccs2)cc1/C=C/C(=O)c1ccc(S(=O)(=O)Nc2ccc(Cl)cn2)cc1
78 to 81 °C | COc1cc(NCCCCCCN2CCN(c3ccccn3)CC2)c2nccc(C)c2c1
124 to 125 °C | Cc1cccc(Oc2ccc(Cl)cc2C(=O)O)c1
203 to 206 °C | COc1cc2c(cc1OC)-c1c(-c3nc(-c4ccccc4)no3)c(-c3cc(C)c(O)c(C)c3)c(C)n1C(C)C2 (racemic)
216 to 217 °C | Oc1ccc(-c2cnccn2)cc1
252 to 254 °C | FC(F)(F)c1nc2cnc3ccccc3c2[nH]1
201 to 202 °C | CN1C(=O)C2(COc3cc4c(cc32)OCCO4)c2c(-c3cc[nH]n3)cccc21 (stereo not given)
96 to 98 °C | Cc1ccc(S(=O)(=O)O[C@H](Cc2ccccc2)C(=O)NCCc2ocnc2C(=O)OCc2ccccc2)cc1
182 to 183 °C | O=C(Nc1cn(C2CCCCO2)nc1C(=O)NCCNc1ccccc1)c1ccccn1 (stereo not given)
107 °C | COc1ccc(C[C@H](NC(=O)OCc2ccccc2)C(=O)CCl)cc1
241 to 242 °C | COc1ccnc(CCc2nc3cc(-c4ccc(C#N)cc4)cnc3[nH]2)c1
145 to 148 °C | CCc1nc2ccccc2c(N)c1C(C)=O
124 to 125 °C | CCOC(=O)C(=NOC(C)(C)C(=O)OC(C)(C)C)c1csc(NC(c2ccccc2)(c2ccccc2)c2ccccc2)n1
183 °C | Cc1cc(C)cc(Nc2nccc(-n3ccnc3-c3ccccc3)n2)c1
